Our source for the preventing mortality values is patent US20170333459A1 (priority 2010, published 2017).

The test system of the test is ectromelia, cowpox, vaccinia, or monkeypox virus. The arrangement: species or system mice. Conditions: mouse, in vivo.

Consider `CCCCCCCCCCCCCCCCOCCCOP(=O)(O)CO[C@H](CO)Cn1ccc(N)nc1=O` [CMX001, 1-O-hexadecyloxypropyl cidofovir], for which the preventing mortality entry is recorded as “effective in preventing mortality”.
